Measurements published in patent US20160355530A1, “HEPATITIS C INHIBITORS AND USES THEREOF” (AbbVie Inc., priority 2010, published 2016).
Read-outs that look alike come from different tables or passages of the source.

Legend:
[1] = target: T1, HCV NS5B polymerase 1b BK strain (Hepatitis C virus genotype 1b, UniProt P26663); assay: HCV NS5B polymerase enzymatic inhibition assay, strain 1b BK; type: biochemical; conditions: enzyme, strain 1b BK; read-out: HCV Polymerase Strain 1b BK IC50
T1 construct: six-histidine tag; made in house; host or cells: E. coli
T1 sequence (P26663 2420-2989): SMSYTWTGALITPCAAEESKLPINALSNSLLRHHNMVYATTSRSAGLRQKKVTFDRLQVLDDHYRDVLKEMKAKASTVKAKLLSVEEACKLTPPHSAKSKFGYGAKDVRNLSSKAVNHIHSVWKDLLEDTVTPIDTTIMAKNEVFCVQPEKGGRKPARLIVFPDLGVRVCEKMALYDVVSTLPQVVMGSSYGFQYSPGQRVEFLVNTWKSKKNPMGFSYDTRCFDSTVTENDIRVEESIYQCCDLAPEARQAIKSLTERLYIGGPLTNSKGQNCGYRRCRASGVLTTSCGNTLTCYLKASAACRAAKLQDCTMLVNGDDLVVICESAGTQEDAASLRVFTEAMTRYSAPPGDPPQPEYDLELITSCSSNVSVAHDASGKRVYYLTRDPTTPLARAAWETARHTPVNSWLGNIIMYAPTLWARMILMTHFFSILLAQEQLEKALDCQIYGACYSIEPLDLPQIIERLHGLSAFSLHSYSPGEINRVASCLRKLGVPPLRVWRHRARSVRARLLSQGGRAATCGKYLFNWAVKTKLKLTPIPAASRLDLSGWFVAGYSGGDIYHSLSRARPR
Description: (§1) Purified HCV NS5B polymerase enzymes were used for polymerase inhibition assays. All recombinant HCV polymerases contained the first 570 amino acids of the 591 amino acid native protein sequence and a six-histidine tag at the N-terminus or C-terminus to facilitate purification by affinity chromatography. The DNA nucleotide sequence for the HCV polymerase 1b BK strain was codon optimized for expression in E. coli. A synthetic gene was prepared from a series of overlapping oligonucleotides that were filled in using a DNA polymerase and amplified by PCR. The patient isolate HCV polymerases were cloned by RT-PCR methods using HCV RNA extracted from the serum of infected subjects obtained from ProMedDx and BioCollections (genotypes 2a, 2b, 3a, and 4a). Laboratory strains were cloned from plasmid DNA (1a-H77 or 1a-H77-C316Y) or from existing replicon cells (1b Rice). In all cases the amplified DNA was cloned into a protein expression vector (typically a pET vector from Novagen) and then multiple clones were sequenced to identify one whose NS5B sequence agreed with the population sequence. This sequence-confirmed clone was then transfected into E. coli for protein expression and purification. E. coli cultures were grown to a maximum optical density (OD) of 2-3 and then induced with 0.4 mM isopropyl beta-D-thiogalactopyranoside (IPTG) and grown for 20 hours at 20° C.
(§2) Proteins were purified using nickel affinity chromatography, and additional column steps were added including, ion exchange, size exclusion, hydrophobic ion, and poly-U affinity chromatography, as needed, depending on the sample being purified. The template RNA used in the polymerase enzymatic assay was a 2.1 kb construct that corresponds to the 3′-end of an HCV genotype 1b negative strand RNA.
(§3) The reaction was initiated by the addition of 20 μM CTP, 20 μM ATP, 0.284 μM (0.5 μCi) of 5,6-[^3H] UTP, 5 nM template RNA and 0.1 U/μL RNase inhibitor (RNasin, Promega), and allowed to proceed for three hours at 30° C. The final reaction volume was 50 μL. The reaction was terminated by the addition of 50 uL of 4 mM spermine in 10 mM Tris-HCl, pH 7.5, 1 mM EDTA. The quenched reaction was allowed to incubate for at least 15 minutes at room temperature, and then the precipitated RNA was captured by filtration through a glass fiber filter (GF/B, Millipore) in a 96 well format. The filter plate was washed five times with 200 μL of 2 mM spermine, 10 mM Tris-HCl, pH 8.0, 1 mM EDTA, and two times with ethanol. After drying thoroughly in air, 30 μL of Microscint-20 scintillation cocktail (Perkin Elmer) was added to each well, and the retained cpm were determined by scintillation counting. IC50 values were determined by nonlinear regression.
(§4) % Inhibition=100*[[I]/([I]+[IC50])] equation 1
(§5) V=kcat[S]/2(Km+[S])*(sqrt((IC50+I−E)̂2+(4*IC50*E))−(IC50+I−E)) equation 2

[2] = system: HCV 1a-H77 subgenomic replicon; assay: microbe, parasite or virus in culture; type: cell-based, HCV genotype 1a; conditions: Hepatitis C virus, stable replicon
[3] = system: HCV 1b-BB7 subgenomic replicon; assay: microbe, parasite or virus in culture; type: cell-based, HCV genotype 1b; conditions: Hepatitis C virus, stable replicon
[4] = target: T2, HCV NS5B polymerase 1a-H77-C316Y (Hepatitis C virus genotype 1a, UniProt P27958, C2736Y); assay: biochemical; set-up: species or system HCV genotype 1a
T2 construct: six-histidine tag; made in house; host or cells: E. coli
T2 sequence (P27958 2421-2990 C2736Y): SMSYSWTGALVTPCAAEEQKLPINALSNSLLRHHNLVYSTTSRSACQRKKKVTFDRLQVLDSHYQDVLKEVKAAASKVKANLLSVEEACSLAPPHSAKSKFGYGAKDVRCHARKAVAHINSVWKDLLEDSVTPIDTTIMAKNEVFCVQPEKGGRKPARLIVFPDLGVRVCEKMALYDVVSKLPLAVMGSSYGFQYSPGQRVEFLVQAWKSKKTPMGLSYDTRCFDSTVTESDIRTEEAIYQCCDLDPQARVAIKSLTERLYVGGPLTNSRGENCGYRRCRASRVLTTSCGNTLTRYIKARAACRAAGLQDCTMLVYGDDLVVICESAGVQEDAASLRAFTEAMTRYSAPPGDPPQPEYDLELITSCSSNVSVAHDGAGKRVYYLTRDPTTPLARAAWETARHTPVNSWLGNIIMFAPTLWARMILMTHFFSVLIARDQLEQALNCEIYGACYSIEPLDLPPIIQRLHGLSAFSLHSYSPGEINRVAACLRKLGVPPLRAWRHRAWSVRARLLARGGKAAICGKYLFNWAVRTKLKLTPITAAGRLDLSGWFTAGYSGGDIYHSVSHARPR
Description: as §1, §2, §3, §4, §5

[5] = system: HCV NS5B polymerase 1a-H77-C316Y; assay: biochemical; set-up: species or system HCV genotype 1a; conditions: ratio of enzyme IC50s, 1a H77-C316Y / 1a H77
Description: as §1, §2, §3, §4, §5

[6] = target: T3, HCV NS5B polymerase 1a-H77 (Hepatitis C virus genotype 1a, UniProt P27958); assay: biochemical; set-up: species or system HCV genotype 1a; conditions: enzyme, strain 1a H77; read-out: HCV Polymerase Strain 1a H77 IC50
T3 construct: six-histidine tag; made in house; host or cells: E. coli
T3 sequence (P27958 2421-2990): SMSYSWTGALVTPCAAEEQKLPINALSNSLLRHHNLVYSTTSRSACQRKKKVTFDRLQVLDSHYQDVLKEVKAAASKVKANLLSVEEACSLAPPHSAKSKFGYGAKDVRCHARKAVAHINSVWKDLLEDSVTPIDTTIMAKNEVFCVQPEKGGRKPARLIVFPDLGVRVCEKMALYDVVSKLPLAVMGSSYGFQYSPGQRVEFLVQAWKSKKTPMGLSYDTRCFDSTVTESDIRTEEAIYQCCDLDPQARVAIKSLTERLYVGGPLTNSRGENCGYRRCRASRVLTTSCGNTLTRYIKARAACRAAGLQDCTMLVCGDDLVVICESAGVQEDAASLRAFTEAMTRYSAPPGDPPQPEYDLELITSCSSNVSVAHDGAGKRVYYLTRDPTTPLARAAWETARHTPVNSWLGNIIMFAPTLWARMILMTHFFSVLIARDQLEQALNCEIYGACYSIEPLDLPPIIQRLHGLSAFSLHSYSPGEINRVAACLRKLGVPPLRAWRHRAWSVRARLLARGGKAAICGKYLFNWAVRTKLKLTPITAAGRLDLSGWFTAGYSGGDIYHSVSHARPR
Description: as §1, §2, §3, §4, §5

[7] = 5% FBS, absence of human plasma, read-out: Stable Replicon 1a H77 5% FBS EC50
[8] = strain 1a H77, 5% FBS + 40% human plasma, read-out: 1a H77 5% FBS + 40% Human Plasma EC50
[9] = strain 1a H77, 5% FBS, no human plasma, read-out: 1a H77 5% FBS EC50
[10] = strain 1a H77, 5% FBS, read-out: 1a H77 5% FBS EC50
[11] = strain 1b BB7, 5% FBS + 40% human plasma, read-out: 1b BB7 5% FBS + 40% Human Plasma EC50
[12] = strain 1b BB7, 5% FBS, no human plasma, read-out: 1b BB7 5% FBS EC50
[13] = strain 1b BB7, 5% FBS, read-out: 1b BB7 5% FBS EC50

SMILES | IC50 [1] [nM] | EC50 [2, 7] [nM] | EC50 [2, 8] [nM] | EC50 [2, 9] [nM] | EC50 [2, 10] [nM] | EC50 [3, 11] [nM] | EC50 [3, 12] [nM] | EC50 [3, 13] [nM] | IC50 [4] [nM] | C316Y/1a Fold Resistance [5] [fold] | IC50 [6] [nM]
CS(=O)(=O)N(CCOc1ccccc1)c1cc2oc(-c3ccc(F)cc3)c(-c3ncc[nH]3)c2cc1C1CC1 [Example 43, N-[5-cyclopropyl-2-(4-fluorophenyl)-3-(1H-imidazol-2-yl)-1-benzofuran-6-yl]-N-(2-phenoxyethyl)methanesulfonamide] | 25 | 269 | 5210 | 269 | 269 | 616 | 80 | 80 | 1000 | 154 | 6.5
CS(=O)(=O)N(CC1CCCCC1)c1cc2oc(-c3ccc(F)cc3)c(-c3ncc[nH]3)c2cc1C1CC1 [Example 45, N-(cyclohexylmethyl)-N-[5-cyclopropyl-2-(4-fluorophenyl)-3-(1H-imidazol-2-yl)-1-benzofuran-6-yl]methanesulfonamide] | 110 | 87.4 | 3010 | 87.4 | 87.4 | 4410 | 180 | 180 | 295 | 39 | 7.5
COCCN(c1cc2oc(-c3ccc(F)cc3)c(-c3ncc[nH]3)c2cc1C1CC1)S(C)(=O)=O [Example 47, N-[5-cyclopropyl-2-(4-fluorophenyl)-3-(1H-imidazol-2-yl)-1-benzofuran-6-yl]-N-(2-methoxyethyl)methanesulfonamide] | 41 | 81.7 | 771 | 81.7 | 81.7 | 148 | 25.6 | 25.6 | 1000 | 126 | 7.9
CS(=O)(=O)N(CC1CCNC1)c1cc2oc(-c3ccc(F)cc3)c(-c3ncc[nH]3)c2cc1C1CC1 (stereo not shown) [Example 51, N-[5-cyclopropyl-2-(4-fluorophenyl)-3-(1H-imidazol-2-yl)-1-benzofuran-6-yl]-N-(pyrrolidin-3-ylmethyl)methanesulfonamide] | 74 | 1000 | 4590 | 1000 | 1000 | 835 | 194 | 194 | 2050 | 219 | 9.4
CC(C)N(c1cc2oc(-c3ccc(F)cc3)c(-c3ncc[nH]3)c2cc1C1CC1)S(C)(=O)=O [Example 52, N-[5-cyclopropyl-2-(4-fluorophenyl)-3-(1H-imidazol-2-yl)-1-benzofuran-6-yl]-N-isopropylmethanesulfonamide] | 132 | 130 | 1410 | 130 | 130 | 661 | 114 | 114 | 2220 | 286 | 7.7
COC(=O)CCCN(c1cc2oc(-c3ccc(F)cc3)c(-c3ncc[nH]3)c2cc1C1CC1)S(C)(=O)=O [Example 68, methyl 4-{[5-cyclopropyl-2-(4-fluorophenyl)-3-(1H-imidazol-2-yl)-1-benzofuran-6-yl](methylsulfonyl)amino}butanoate] | 20 | 57 | 1210 | 57 | 57 | 496 | 62 | 62 | 103 | 17 | 5.9
CS(=O)(=O)N(CCC1CCCCC1)c1cc2oc(-c3ccc(F)cc3)c(-c3ncc[nH]3)c2cc1C1CC1 [Example 72, N-(2-cyclohexylethyl)-N-[5-cyclopropyl-2-(4-fluorophenyl)-3-(1H-imidazol-2-yl)-1-benzofuran-6-yl]methanesulfonamide] | 46 | 73.7 | 3390 | 73.7 | 73.7 | 2210 | 61 | 61 | 164 | 11 | 14.3
CS(=O)(=O)N(CC1CCCO1)c1cc2oc(-c3ccc(F)cc3)c(-c3ncc[nH]3)c2cc1C1CC1 (stereo not shown) [Example 75, N-[5-cyclopropyl-2-(4-fluorophenyl)-3-(1H-imidazol-2-yl)-1-benzofuran-6-yl]-N-(tetrahydrofuran-2-ylmethyl)methanesulfonamide] | 60 | 69.6 | 1080 | 69.6 | 69.6 | 1160 | 45 | 45 | 1600 | 247 | 6.5
CC(C)=CCCN(c1cc2oc(-c3ccc(F)cc3)c(-c3ncc[nH]3)c2cc1C1CC1)S(C)(=O)=O [Example 76, N-[5-cyclopropyl-2-(4-fluorophenyl)-3-(1H-imidazol-2-yl)-1-benzofuran-6-yl]-N-(4-methylpent-3-en-1-yl)methanesulfonamide] | 23 | 48.5 | 3960 | 48.5 | 48.5 | 661 | 26.9 | 26.9 | 131 | 22 | 5.9
Cc1ncsc1CCN(c1cc2oc(-c3ccc(F)cc3)c(-c3ncc[nH]3)c2cc1C1CC1)S(C)(=O)=O [Example 78, N-[5-cyclopropyl-2-(4-fluorophenyl)-3-(1H-imidazol-2-yl)-1-benzofuran-6-yl]-N-[2-(4-methyl-1,3-thiazol-5-yl)ethyl]methanesulfonamide] | 13 | 38.5 | 1060 | 38.5 | 38.5 | 514 | 15.7 | 15.7 | 107 | 27 | 4
CS(=O)(=O)N(CCN1CCCC1)c1cc2oc(-c3ccc(F)cc3)c(-c3ncc[nH]3)c2cc1C1CC1 [Example 81, N-[5-cyclopropyl-2-(4-fluorophenyl)-3-(1H-imidazol-2-yl)-1-benzofuran-6-yl]-N-[2-(pyrrolidin-1-yl)ethyl]methanesulfonamide] | 137 | 205 | 732 | 205 | 205 | 129 | 36.9 | 36.9 | 4800 | 151 | 31.8
